Data as given in patent US10450549B2, “Aryloxyphenoxypropionate tolerance in turfrgass species and use of AAD1 as a selectable marker” (Dow AgroSciences, LLC, priority 2004, dated 2019).

Assays:
[1] = test system: T4 Arabidopsis homozygous for AAD1 (v3) (line AAD1.01.315.076); experiment: Foliar-applied auxinic herbicides on homozygous T4 AAD1 (v3) Arabidopsis, % injury 14 DAT; assay type: in vivo, Arabidopsis thaliana; conditions: AAD1.01.315.076.T4 homozygous AAD1 plants
How it was run: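 Homozygous T4 AAD1 (v3) Arabidopsis (line AAD1.01.315.076) and a PAT/Cry1F transformed control were grown in pots and track-sprayed foliarly at 187 L/ha with herbicides formulated in 200 mM Hepes pH 7.5. Injury was rated 14 days after treatment, with 3-4 replicates averaged over two experiments.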

callus event 3404-006 = experiment: Dose response of AAD1 (v3) expressing maize callus event; assay type: cell-based; conditions: haloxyfop (Gallant Super) up to 400 nM
Protocol: Non-transformed donor Hi-II cell lines were pooled together, […]-treated without DNA, filtered onto GN6 medium at the rate of 6 ml per filter, and allowed to callus for 2-3 weeks at 28° C. Approximately 200 mg of callused suspension tissue was transferred per treatment to selection media in 60×20 mm plates containing 30, 100 or 300 nM R-haloxyfop acid. Three replicates were used per concentration. A control medium containing 1 mg/L bialaphos (from Herbiace commercial formulation, Meiji Seika, Japan), GN6 (1H), was also included for comparison. Callus was removed after 2 weeks, weighed, and transferred to fresh media of the same concentration for another 2 weeks. After a total of 4 weeks elapsed time, tissue was removed, weighed a final time, and then discarded.
A smaller subset of these events was assessed in dose-response studies in comparison to a non-transformed control. A range of concentrations of haloxyfop (from Gallant Super formulation), up to 400 nM, were tested.

AAD1 (v3) event lines = experiment: Field tolerance of pDAB3404 T1 corn to quizalofop and 2,4-D: AAD1 (v3) events; assay type: in vivo; conditions: 140 g ae/ha
Source text: Two field trials were established at field stations in Hawaii and Indiana. […] The hybrid Hi-II×5XH571 is of the same parentage as the AAD1 (v3) event lines. The hybrid Croplan 585SR is a sethoxydim resistant line.
The experimental design was a split-plot with four replications. The main plot was herbicide treatment and the sub-plot was AAD1 (v3) event or comparison hybrid. Plots were one row by 3.7 meters with approximately twenty-five seeds planted in each row. For AAD1 events, seeds from a different lineage within the event were planted in each replicate.
Glufosinate at 560 g ai/ha was applied to AAD1 (v3) plots at the V2 stage to eliminate non-transformed plants. […] Treatments were applied using backpack broadcast boom equipment delivering 187 L/ha carrier volume at 130-200 kpa pressure.
Quizalofop treated plots were visually assessed for crop injury at one and three weeks after application (WAA) using a 0-100% scale, where 0 equals no injury and 100 equals complete death.

[2] = test system: AAD1-transformed T0 2095-2 creeping bentgrass events; experiment: Quizalofop-p-ethyl postemergence on AAD1 (pDAB5042) creeping bentgrass line 2095-2; assay type: in vivo, Agrostis stolonifera
Protocol: Selected T0 plants were sprayed with quizalofop-p-ethyl (Assure II®, DUPONT, Wilmington, Del.) at rates ranging from 60 to 2,240 g ae/ha. […] This rate also controls susceptible monocot weed species. Measured amounts were placed individually in 25 mL glass vials and dissolved in a 4 mL volume of 1.0% (v/v) Agri-Dex® Crop Oil Concentrate (COC) from HELENA CHEMICAL (Collierville, Tenn.). Application solutions were prepared by serial dilution of the highest rate applied. One-half the volume of the highest rate stock solution (2 mL) was transferred to a clean 25 mL vial containing an equal volume of 1% COC and the diluted solution was mixed. Additional dilutions were prepared similarly by removing one-half the volume of the previous concentration (2 mL), and adding to an equal volume of 1% COC and mixing. When preparing the lowest concentration, the remaining one-half volume was discarded. All 2 mL stock solutions were further diluted by adding 10 mL aqueous mixture of 1.0% (v/v) COC, so that the final spray solutions were 12 mL in volume and contained 1.0% (v/v) COC.
Spray solutions were applied to the plant material with an overhead Mandel™ track sprayer equipped with a 8002E nozzles calibrated to deliver 187 L/ha over an application area of 0.503 square meters (m^2) at a spray height of 18 inches (46 cm) above average plant canopy height. Control plants were sprayed in the same manner with the COC blank.
The treated plants and control plants were placed in a greenhouse, and watered by sub-irrigation to prevent wash-off of the test compounds. At various times after application, the condition of the test plants as compared with that of the untreated plants was determined visually and scored on a scale of 0 to 100 percent (where 0 corresponds to no injury or growth inhibition and 100 corresponds to complete kill). Regenerated, non-transformed (NT) ‘Crenshaw’ or elite line 2905-2 creeping bentgrass plants and/or seed-derived clonally propagated plants served as quizalofop sensitive controls. […]

## Nc1c(Cl)c(F)nc(OCC(=O)O)c1Cl [Fluroxypyr]
[1]; 50 g ae/ha foliar
  Ave % Injury 14DAT: 48%
[1]; 200 g ae/ha foliar
  Ave % Injury 14DAT: 75%
[1]; 800 g ae/ha foliar
  Ave % Injury 14DAT: 88%
[1]; 3200 g ae/ha foliar
  Ave % Injury 14DAT: 95%

## CC(Oc1ccc(Oc2ncc(C(F)(F)F)cc2Cl)cc1)C(=O)O (stereo not shown) [haloxyfop]
Callus event 3404-006
  callus growth of event 3404-006: no significant reduction in callus growth

## C[C@@H](Oc1ccc(Oc2cnc3cc(Cl)ccc3n2)cc1)C(=O)O [quizalofop]
AAD1 (v3) event lines; HI, 3404.001
  % Injury 3 WAA (0-100 scale): 25%
AAD1 (v3) event lines; HI, 3404.006
  % Injury 3 WAA (0-100 scale): 0%
AAD1 (v3) event lines; HI, 3404.013
  % Injury 3 WAA (0-100 scale): 0%
AAD1 (v3) event lines; HI, 3404.017
  % Injury 3 WAA (0-100 scale): 0%
AAD1 (v3) event lines; HI, 3404.020
  % Injury 3 WAA (0-100 scale): 0%
AAD1 (v3) event lines; HI, 3404.022
  % Injury 3 WAA (0-100 scale): 0%
AAD1 (v3) event lines; HI, 3404.025
  % Injury 3 WAA (0-100 scale): 0%
AAD1 (v3) event lines; HI, 3404.027
  % Injury 3 WAA (0-100 scale): 0%
AAD1 (v3) event lines; HI, 3404.031
  % Injury 3 WAA (0-100 scale): 0%
AAD1 (v3) event lines; HI, 3404.033
  % Injury 3 WAA (0-100 scale): 0%
AAD1 (v3) event lines; HI, 3404.036
  % Injury 3 WAA (0-100 scale): 0%
AAD1 (v3) event lines; HI, 3404.044
  % Injury 3 WAA (0-100 scale): 0%
AAD1 (v3) event lines; HI, 3404.050
  % Injury 3 WAA (0-100 scale): 0%
AAD1 (v3) event lines; HI, 3404.053
  % Injury 3 WAA (0-100 scale): 0%
AAD1 (v3) event lines; HI, 3404.074
  % Injury 3 WAA (0-100 scale): 0%
AAD1 (v3) event lines; HI, 3404.082
  % Injury 3 WAA (0-100 scale): 0%
AAD1 (v3) event lines; IN, 3404.001
  % Injury 3 WAA (0-100 scale): 25%
AAD1 (v3) event lines; IN, 3404.006
  % Injury 3 WAA (0-100 scale): 0%
AAD1 (v3) event lines; IN, 3404.013
  % Injury 3 WAA (0-100 scale): 0%
AAD1 (v3) event lines; IN, 3404.017
  % Injury 3 WAA (0-100 scale): 0%
AAD1 (v3) event lines; IN, 3404.020
  % Injury 3 WAA (0-100 scale): 0%
AAD1 (v3) event lines; IN, 3404.022
  % Injury 3 WAA (0-100 scale): 0%
AAD1 (v3) event lines; IN, 3404.025
  % Injury 3 WAA (0-100 scale): 0%
AAD1 (v3) event lines; IN, 3404.027
  % Injury 3 WAA (0-100 scale): 0%
AAD1 (v3) event lines; IN, 3404.031
  % Injury 3 WAA (0-100 scale): 0%
AAD1 (v3) event lines; IN, 3404.033
  % Injury 3 WAA (0-100 scale): 0%
AAD1 (v3) event lines; IN, 3404.036
  % Injury 3 WAA (0-100 scale): 0%
AAD1 (v3) event lines; IN, 3404.044
  % Injury 3 WAA (0-100 scale): 0%
AAD1 (v3) event lines; IN, 3404.050
  % Injury 3 WAA (0-100 scale): 0%
AAD1 (v3) event lines; IN, 3404.053
  % Injury 3 WAA (0-100 scale): 0%
AAD1 (v3) event lines; IN, 3404.074
  % Injury 3 WAA (0-100 scale): 0%
AAD1 (v3) event lines; IN, 3404.082
  % Injury 3 WAA (0-100 scale): 0%
[2]; 120, 480 and 960 g ae/ha, 22 to 50 DAA
  mean injury, pDAB5042 2095-2 events: less than 25%
[2]; 120 g ae/ha
  injury of 48 of the 53 individual 2095-2 events: ≤ 20%
  injury of four 2095-2 events: between about 25% and 35% injury
